# According to US10112911B2, “Substituted cyanoguanidines as oral anti-virals” (Abbvie Inc, priority 2012, dated 2018):
# Read-outs that look alike come from different tables or passages of the source.
# Tests used:
# HEp-2 cells = test: Cytotoxicity assay (MTT) run in parallel with the antiviral assay; assay type: cell-based; details: uninfected HEp-2 cells, 4 days incubation, 50% toxicity dose
# Description: HEp-2 cells and RSV (Group A, Long Strain) were obtained from the American Type Culture Collection (Manassas, Va.). Cytotoxicity of the compounds was determined in experiments done in parallel with the antiviral assays. To do this, 100 μL of assay medium was added to the wells of HEp-2 cells pretreated with 100 μL serially diluted compounds as described above. After 4 days of incubation, the viability of the cells was determined by the MT assay in the same way as detailed in the “Antiviral Assay” method. Results were expressed as 50% toxicity dose (TD50) values. Compounds were tested to determine both their antiviral and toxicity to determine their therapeutic window. Determination of the EC50 and TD50 of these active compounds were repeated one additional time to confirm the window.
# [1] = tested on: RSV (Group A, Long Strain); test: Cytopathetic effect (CPE) protection antiviral assay, MTT readout; assay type: cell-based; details: human respiratory syncytial virus, HEp-2, 96 h, HEp-2 cells, 0.2 MOI RSV, read-out: RSV EC50
smiles,measurement,setting,value
"Cc1ccccc1N/C(=N/C#N)N1CCN(c2nc3cccc(Cl)c3o2)CC1C(C)C (stereo not drawn) [Example 1.5, 4-(7-chloro-1,3-benzoxazol-2-yl)-N′-cyano-2-isopropyl-N-(2-methylphenyl)piperazine-1-carboximidamide]",MTT TD50,HEp-2 cells,>10 µM
same,EC50,"[1]; 4 days incubation, protection from CPE (Table 1)",810 nM
same,EC50,"[1]; 4 days, Table 2, determination repeated to confirm window",810 nM
